Experimental data from US9493466B2, “Treatment of cancer with TOR kinase inhibitors” (Signal Pharmaceuticals, LLC, priority 2011, dated 2016).

Assays:
NCI-H929 tumor = test: Human plasma cell myeloma (NCI-H929) study; type: in vivo, SCID mice; conditions: FIG. 19
Description: Human Plasma Cell Myeloma (NCI-H929) Study. Female SCID mice (Fox Chase SCID®, CB17/Icr-Prkce^scid, Charles River) were 8 weeks old at the beginning of the study. The animals were fed ad libitum water (reverse osmosis, 1 ppm Cl) and NIH 31 Modified and Irradiated Lab Diet® consisting of 18.0% crude protein, 5.0% crude fat, and 5.0% crude fiber. […]
The NCI-H929 tumor cells used for implantation were harvested during log phase growth and resuspended at a concentration of 5×10^7 cells/mL in 50% Matrigel (BD Biosciences). […] Tumor size, in mm^3, was calculated from: […]
Compound 1 was administered via oral gavage (p.o.) once daily for twenty-eight days (qd×28). Treatment efficacy was determined from the calculated tumor volumes on Day 12. MTV(n), the median tumor volume for the number of animals, n, evaluable on the day of analysis, was determined for each group. Percent tumor growth inhibition (% TGI) was defined as the difference between the MTV of the control group and the MTV of the drug-treated group, expressed as a percentage of the MTV of the control group: […]
Each animal was to be euthanized when its neoplasm reached the endpoint volume (2000 mm^3). For each animal whose tumor reached the endpoint volume, the time to endpoint (TTE) was calculated by the following equation: […]

NSCLC = test: Phase 1/2 study Part B: tumor response, NSCLC; type: in vivo, human; conditions: 17 evaluable patients
Description: In Part B, subjects may start Compound 1 at the MTD and/or a lower dose level based on safety, PK and PD data from Part A. Approximately 150 subjects will be treated and evaluated for safety and preliminary antitumor activity after every two cycles of therapy. Tumor types include non-small cell lung cancer (NSCLC), glioblastoma multiforme (GBM), hepatocellular carcinoma (HCC), gastrointestinal neuroendocrine tumor of non-pancreatic origin (NET), diffuse large B-cell lymphoma (DLBCL), multiple myeloma (MM), and hormone receptor positive breast cancer (HRPBC). Up to 20 subjects will be enrolled in each tumor type.
Subjects will be evaluated for efficacy every 2 cycles through cycle 6 and every 3 cycles thereafter. The primary efficacy variable is response. Tumor assessments, including imaging (CT, MRI and/or PET) of the chest and abdomen and other sites as appropriate, will be performed during Screening. Subjects with brain lesions will also have brain scans at Screening and during follow-up tumor assessments. After Screening, tumor assessments (for all tumors except multiple myeloma) will be performed on completion of Cycles 2, 4 and 6 (i.e., on Cycles 3, 5 and 7/Day 1±7 days) and then every 3 months thereafter (e.g., Cycle 10 and 13/Day 1±7 days). Tumor assessment (for multiple myeloma and only NHL/DLBCL with known or suspected marrow involvement) (bone marrow aspiration and biopsy, with PD biomarker analysis, cytogenetic analysis if abnormally present at Screening) will be performed on completion of Cycles 4, 8, 12 and 16 only (i.e., on Cycles 5, 9, 13 and 17/Day 1±7 days). Cytogenetics need not be repeated if normal at Screening. […] Subjects will be evaluated for tumor response on completion of Cycle 2, 4, 6, and so on. […]
For Part B, efficacy variables to be analyzed include tumor response at the end of treatment, the proportion of subject alive and progression-free, and duration of response. […]

CO[C@H]1CC[C@H](N2C(=O)CNc3ncc(-c4ccc(C(C)(C)O)nc4)nc32)CC1 [Compound 1, 7-(6-(2-hydroxypropan-2-yl)pyridin-3-yl)-1-((1r,4r)-4-methoxycyclohexyl)-3,4-dihydropyrazino-[2,3-b]pyrazin-2(1H)-one]
tumor growth delay (NCI-H929 tumor; 3 mg/kg and 10 mg/kg p.o. qd×28): Significant tumor growth delay | tumor growth inhibition (NCI-H929 tumor; 10 mg/kg p.o. qd×28): Significant tumor growth inhibition | patients meeting Partial Response (RECIST 1.1) (NSCLC): 1 patient | patients meeting at least Stable Disease (RECIST 1.1) (NSCLC): 11 patients | best target lesions responses (reduction) (NSCLC; 45 mg QD start): up to 35%
